{"source": "ChEMBL document CHEMBL2412988", "about": "“Synthesis, pH-dependent, and plasma stability of meropenem prodrugs for potential use against drug-resistant tuberculosis” (Bioorg Med Chem, 2013)", "system": "Mycobacterium tuberculosis", "experiment": "Antimycobacterial activity against extensively drug-resistant Mycobacterium tuberculosis in presence of clavulanate", "type": "functional"}
{"molecule": "C[C@@H](O)[C@H]1C(=O)N2C(C(=O)O)=C(S[C@@H]3CN[C@H](C(=O)N(C)C)C3)[C@H](C)[C@H]12", "note": "[MEROPENEM]", "values": [{"measurement": "MIC", "value": 0.03, "unit": "mg/L"}]}
